Source: US20190142860A1, “NUCLEIC ACID BASED TIA-1 INHIBITORS” (Aquinnah Pharmaceuticals, Inc., priority 2015, published 2019)
“Also recorded” adds a separate entry of the source.

Legend:
[1] = system: stress granules (SGs) in HT22 cells; test: Stress granule / tau granule formation in HT22 cells expressing tau and TIA1; assay type: cell-based, mouse; settings: for formation of tau granules: neuronal cell lines
Procedure: HT22 cells were transfected using Lipofectamine (Invitrogen), incubated 24 hours, and treated after 24 hrs (25 uM salubrinal, 5 μg/ml puromycin, 10 μg/ml cycloheximide). At 48 hours the cells were fixed in 4% PFA.
HT22 cells were maintained in DMEM (4.5 g glucose/L) media supplemented with 10% fetal bovine serum, lx PenStrep (Invitrogen), lx L-Glutamine (Invitrogen), and 1× non-essential amino acids. Cells were passaged twice a week 1:5. Cells were seeded on 18 mm poly-D-lysine coated coverslips in 12-well plates (75,000/coverslip) one day prior to transfection in […] media (DMEM, 10% FBS). Cells were transfected at 1:2 ratio DNA:Lipofectamine (Invitrogen), delivering 2 μg total DNA per well. Lipofectamine in OptiMEM (Invitrogen) is incubated for 5 min prior to the addition of the DNA/OptiMEM. The transfection mixture is then allowed to incubate for 20 min at room temperature prior to being added to the cells. 500 μL of media is removed and 500 μL of transfection mixture is added dropwise to each well. Cells were incubated 24 hours, after which the addition of 25 μM salubrinal may be added to half of the plates and allowed to incubate for 24 hours. At 48 hours post-transfection, the cells were fixed in 4% PFA and stored in PBS.
Granule count cells: SG density was quantified using Image J software by calculating the number of puncta […] per 63× frame controlled for the number of cells. This was done by thresholding images, and using the analyze particle functionality. Quantifications of granule counts and area in primary neurons was done in ImageJ by using a free-hand tool to outline the neuron, thresholding the image, creating a mask over the nucleus, and using the particle analyzer tool.

[2] = system: tau granules in primary hippocampal neurons; test: Tau granules in dendrites of primary tau−/− hippocampal neurons; assay type: cell-based, mouse; settings: WT or P301L tau ± TIA1, treated at DIV21, cycloheximide 10 μg/ml
Procedure: Primary hippocampal cultures were generated from P0 pups from C57Bl/6 WT, TIA1 −/−, or tau −/− mice. The hippocampus was dissected out in Hank's Balanced Salt Solution buffered with HEPES and PenStrep, and dissociated with 0.125% trypsin for 15 min at 37° C., followed by trituration. Dissociated cells were plated on plates of coverslips pre-coated with Poly-D lysine (100 μg/mL, Sigma). Neurons were grown for 21 days in Neurobasal medium supplemented with B-27 (Invitrogen)
At DIV3 neurons were transduced with AAV9-TIA1-mRFP or AAV9-mRFP virus (MOI 20). At DIV7 neurons were transduced with AAV1-WT tau-V5 or AAV1-P301L tau-V5 virus (MOI 20). Neurons were fixed for immunolabeling and confocal microscopy in 4% PFA, or lysed in via sonication in PBS with protease and phosphatase inhibitors.
Granule count neurons: Quantifications of granule counts and area in primary neurons was done in ImageJ by using a free-hand tool to outline the neuron, thresholding the image, creating a mask over the nucleus, and using the particle analyzer tool.

[3] = system: primary hippocampal neurons; test: Dendrite length of primary hippocampal neurons (MAP2, NeuronJ); assay type: cell-based, mouse; settings: Tau−/− and TIA1−/− neurons, WT or P301L tau ± TIA1, DIV21; puromycin 5 μg/ml, cycloheximide 10 μg/ml
Text: SG density and dendritic processes were quantified using Image J (using ImageJ plug-ins NeuronJ, tracing MAP2 positive processes for dendritic measurements). Granule movement and formation was quantified using Bitplane Imaris Track software (Imaris).
Measurements of dendritic processes were done using ImageJ plug-ins NeuronJ. Using the software to trace MAP2 positive processes of individual cells yields a pixel measurement that can then be back calculated to micrometers using the microscope scaling parameters.

caspase-3 = test: Caspase cleavage (Caspase-Glo 3/7) in neurons co-transduced with TIA1 and tau; assay type: cell-based, mouse; settings: salubrinal 25 μM
Procedure: Caspase 3/7 cleavage was quantified with the Caspase-Glo 3/7 Assay kit, Promega. Apoptosis detected DNA fragmentation (TiterTACS Colorimetric Apoptosis Detection kit, Trevigen).
Caspase 3/7 cleavage was quantified with the Caspase-Glo 3/7 Assay kit, Promega. Apoptosis was analyzed by quantifying DNA fragmentation (TiterTACS Colorimetric Apoptosis Detection kit, Trevigen).

[4] = target: microtubules (mouse brain); test: microtubule pelleting in RAB buffer / immunoblot, mouse cortex

Compound | formation of tau granules [1] | tau granules in dendritic processes (Tau13, MAP2 imaging) [2] | dendrite length [3] | further results
C[C@@H]1C[C@@H]([C@H](O)CC2CC(=O)NC(=O)C2)C(=O)[C@@H](C)C1 [cycloheximide] | prevented formation of tau granules | spread diffusely with only small, less defined granules apparent | did not affect dendrite length | formation of tau/SG complexes (tau+ SGs) ([1]; HT22 cells over-expressing TIA1 and WT or P301L tau, arsenite, cycloheximide 10 μg/ml): prevented formation of the tau/SG complexes; also recorded: reversed
COc1ccc(C[C@H](N)C(=O)N[C@H]2[C@@H](O)[C@H](n3cnc4c(N(C)C)ncnc43)O[C@@H]2CO)cc1 [puromycin] | stimulated formation of tau granules | larger and more abundant tau granules | potentiated the decrease in dendritic length | 
O=C(/C=C/c1ccccc1)NC(NC(=S)Nc1cccc2cccnc12)C(Cl)(Cl)Cl (centres unmarked) [salubrinal] |  |  |  | SG levels ([1]; HT22 cells expressing tau, salubrinal 25 uM): enhanced SG levels; number of SGs ([1]; HT22 cells, P301L, P301L PMIM or P301L PNULL tau ± TIA1-RFP, salubrinal 25 μM): increased the number of SGs in all conditions; levels of cleaved caspase-3 (caspase cleavage) (caspase-3): potentiated
human 1N4R tau with the P301S mutation (PS19 transgene) (from UniProt P10636 2-412) |  |  |  | fold increase in the ratio of MT-bound (P) to unbound (S) tau, P301S TIA1+/- against P301S TIA1+/+ [4]: 3 fold
